Measured values reported in PubChem BioAssay AID328 (DTP/NCI, 2004).
Several values for one entry are separate records, joined by “and”; a condition that tells them apart may be missing. Equal values may be shown once. Toxic doses and inconclusive results are not listed. Rule for the calls: active = survival T/C of 150% or more; inactive = T/C below 125% in these data.

Test system: BDF1 mice, P388 leukemia ip, median survival T/C
Assay: NCI In Vivo Anticancer Drug Screen. Data for tumor model P388 Leukemia (intraperitoneal) in B6D2F1 (BDF1) mice
Settings: endpoint: median survival time, higher = longer survival
How it was run: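 Antitumour effect was judged in vivo: survival in drug-treated mice, normalised to that of vehicle-dosed controls, gives the reported T/C.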

[1] = dose: 25.0 mg/kg/injection, schedule: Q04DX003 (ip), vehicle: saline with Tween-80
[2] = dose: 25.0 mg/kg/injection, schedule: Q01DX009 (ip), vehicle: Klucel (hydroxypropylcellulose) (HPC)
[3] = dose: 50.0 mg/kg/injection, schedule: Q04DX003 (ip), vehicle: saline with Tween-80
[4] = dose: 2.5 mg/kg/injection, schedule: Q01DX009 (ip), vehicle: other
[5] = dose: 5.0 mg/kg/injection, schedule: Q04DX003 (ip), vehicle: other
[6] = dose: 50.0 mg/kg/injection, schedule: Q01DX009 (ip), vehicle: saline with Tween-80
[7] = dose: 100.0 mg/kg/injection, schedule: Q01DX009 (ip), vehicle: saline with Tween-80
[8] = dose: 200.0 mg/kg/injection, schedule: Q01DX009 (ip), vehicle: saline with Tween-80
[9] = dose: 100.0 mg/kg/injection, schedule: Q01DX009 (ip), vehicle: Klucel (hydroxypropylcellulose) (HPC)
[10] = dose: 200.0 mg/kg/injection, schedule: Q01DX009 (ip), vehicle: Klucel (hydroxypropylcellulose) (HPC)
[11] = dose: 400.0 mg/kg/injection, schedule: Q01DX009 (ip), vehicle: Klucel (hydroxypropylcellulose) (HPC)

Measured: T/C

O=C(O)CCCCCNC(=O)OCc1ccccc1
inactive: dose: 100.0 mg/kg/injection, schedule: Q01DX009 (ip), vehicle: gum acacia 112 % of control | dose: 100.0 mg/kg/injection, schedule: Q04DX003 (ip), vehicle: gum acacia 100 % of control | dose: 200.0 mg/kg/injection, schedule: Q01DX009 (ip), vehicle: gum acacia 104 % of control | dose: 200.0 mg/kg/injection, schedule: Q04DX003 (ip), vehicle: gum acacia 100 % of control | dose: 400.0 mg/kg/injection, schedule: Q01DX009 (ip), vehicle: gum acacia 108 % of control | dose: 400.0 mg/kg/injection, schedule: Q04DX003 (ip), vehicle: gum acacia 116 % of control

O=C1OCCN1/N=C\c1ccccc1
inactive: dose: 100.0 mg/kg/injection, schedule: Q01DX001 (ip), vehicle: olive oil, sesame oil, peanut oil 95 % of control | dose: 200.0 mg/kg/injection, schedule: Q01DX001 (ip), vehicle: olive oil, sesame oil, peanut oil 104 % of control | dose: 400.0 mg/kg/injection, schedule: Q01DX001 (ip), vehicle: olive oil, sesame oil, peanut oil 104 % of control

O=[N+]([O-])CC1CCCCC1O (stereo not drawn)
inactive: dose: 6.25 mg/kg/injection, schedule: Q04DX003 (ip), vehicle: saline with Tween-80 100 % of control | dose: 12.5 mg/kg/injection, schedule: Q04DX003 (ip), vehicle: saline with Tween-80 100 % of control | [1] 90 % of control

CN(C)CC/C=C1\c2ccccc2C(C)(C)c2ccc(Cl)cc21
inactive: dose: 6.0 mg/kg/injection, schedule: Q04DX003 (ip), vehicle: saline with Tween-80 95 % of control | dose: 6.25 mg/kg/injection, schedule: Q01DX009 (ip), vehicle: Klucel (hydroxypropylcellulose) (HPC) 100 % of control | dose: 11.0 mg/kg/injection, schedule: Q04DX003 (ip), vehicle: saline with Tween-80 104 % of control | dose: 12.5 mg/kg/injection, schedule: Q01DX009 (ip), vehicle: Klucel (hydroxypropylcellulose) (HPC) 111 % of control | dose: 16.5 mg/kg/injection, schedule: Q01DX009 (ip), vehicle: Klucel (hydroxypropylcellulose) (HPC) 90 % of control and 100 % of control | dose: 22.0 mg/kg/injection, schedule: Q04DX003 (ip), vehicle: saline with Tween-80 104 % of control | [2] 88 % of control and 100 % of control | dose: 33.0 mg/kg/injection, schedule: Q04DX003 (ip), vehicle: saline with Tween-80 100 % of control and 104 % of control | dose: 37.5 mg/kg/injection, schedule: Q01DX009 (ip), vehicle: Klucel (hydroxypropylcellulose) (HPC) 90 % of control and 92 % of control | [3] 110 % of control and 112 % of control | dose: 55.0 mg/kg/injection, schedule: Q01DX009 (ip), vehicle: Klucel (hydroxypropylcellulose) (HPC) 95 % of control | dose: 75.0 mg/kg/injection, schedule: Q04DX003 (ip), vehicle: saline with Tween-80 115 % of control and 120 % of control | dose: 85.0 mg/kg/injection, schedule: Q01DX009 (ip), vehicle: Klucel (hydroxypropylcellulose) (HPC) 87 % of control | dose: 125.0 mg/kg/injection, schedule: Q01DX009 (ip), vehicle: Klucel (hydroxypropylcellulose) (HPC) 95 % of control

C=C1C(=O)OCC2C(C(=O)O)=CC3C(C)C(C)=CC123 (stereo not drawn)
inactive: [4] 105 % of control | [5] 117 % of control | dose: 10.0 mg/kg/injection, schedule: Q01DX009 (ip), vehicle: Klucel (hydroxypropylcellulose) (HPC) 105 % of control and 121 % of control | dose: 10.0 mg/kg/injection, schedule: Q04DX003 (ip), vehicle: other 111 % of control | dose: 20.0 mg/kg/injection, schedule: Q01DX009 (ip), vehicle: Klucel (hydroxypropylcellulose) (HPC) 117 % of control and 120 % of control | dose: 20.0 mg/kg/injection, schedule: Q04DX003 (ip), vehicle: other 124 % of control | dose: 40.0 mg/kg/injection, schedule: Q01DX009 (ip), vehicle: Klucel (hydroxypropylcellulose) (HPC) 121 % of control | dose: 40.0 mg/kg/injection, schedule: Q04DX003 (ip), vehicle: other 119 % of control

Cc1ccc(C)c(C(C)NC2=NCCO2)c1 (stereo not drawn)
inactive: [1] 90 % of control | [3] 90 % of control

CC(C)(O)c1ccccc1S(=O)c1ccc(Cl)cc1 (stereo not drawn)
inactive: [6] 100 % of control | [7] 101 % of control | [8] 99 % of control

C1=CCC(C2OCC3(CO2)COC(C2CC=CCC2)OC3)CC1 (stereo not drawn)
inactive: [9] 96 % of control | [10] 88 % of control | [11] 88 % of control

COc1cc(Nc2nc(N)ncc2N)cc(OC)c1OC
inactive: dose: 100.0 mg/kg/injection, schedule: Q01DX001 (ip), vehicle: saline with Tween-80 91 % of control | dose: 200.0 mg/kg/injection, schedule: Q01DX001 (ip), vehicle: saline with Tween-80 91 % of control | dose: 400.0 mg/kg/injection, schedule: Q01DX001 (ip), vehicle: saline with Tween-80 100 % of control

CC(=O)N/N=C\C1=CCC=C(Br)S1
inactive: [6] 90 % of control | [7] 104 % of control

CC(=O)Nc1ccccc1F
inactive: [9] 100 % of control | dose: 100.0 mg/kg/injection, schedule: Q04DX003 (ip), vehicle: Klucel (hydroxypropylcellulose) (HPC) 87 % of control | [10] 91 % of control | dose: 200.0 mg/kg/injection, schedule: Q04DX003 (ip), vehicle: Klucel (hydroxypropylcellulose) (HPC) 104 % of control | [11] 100 % of control

Cc1[nH][nH]c(=O)c1N=O
inactive: dose: 18.75 mg/kg/injection, schedule: Q01DX009 (ip), vehicle: saline with Tween-80 92 % of control | dose: 37.5 mg/kg/injection, schedule: Q01DX009 (ip), vehicle: saline with Tween-80 99 % of control | dose: 75.0 mg/kg/injection, schedule: Q01DX009 (ip), vehicle: saline with Tween-80 99 % of control

Cn1cnc2c(SCc3ccccc3)ncnc21
inactive: [7] 109 % of control | [8] 113 % of control | dose: 400.0 mg/kg/injection, schedule: Q01DX009 (ip), vehicle: saline with Tween-80 90 % of control

CCSC1(SCC)C(=O)OC2=C(CCCC2)C1N(C)c1ccccc1 (stereo not drawn)
inactive: [6] 96 % of control | [7] 94 % of control | [8] 91 % of control

COc1ccc2c(c1)N=C1CCCC3CCCCC123 (stereo not drawn)
inactive: dose: 100.0 mg/kg/injection, schedule: Q04DX003 (ip), vehicle: saline with Tween-80 99 % of control | dose: 200.0 mg/kg/injection, schedule: Q04DX003 (ip), vehicle: saline with Tween-80 114 % of control

FC(F)(F)c1cc(NC2=NCCN=C(Nc3cc(C(F)(F)F)cc(C(F)(F)F)c3)SS2)cc(C(F)(F)F)c1
inactive: dose: 50.0 mg/kg/injection, schedule: Q01DX009 (ip), vehicle: Klucel (hydroxypropylcellulose) (HPC) 102 % of control | [9] 96 % of control | [10] 110 % of control

O=C(NNC1CCN(Cc2ccccc2)CC1)c1ccccc1
inactive: dose: 1.1 mg/kg/injection, schedule: Q04DX003 (ip), vehicle: saline with Tween-80 100 % of control | dose: 1.65 mg/kg/injection, schedule: Q04DX003 (ip), vehicle: saline with Tween-80 100 % of control | dose: 2.5 mg/kg/injection, schedule: Q04DX003 (ip), vehicle: saline with Tween-80 100 % of control | dose: 3.75 mg/kg/injection, schedule: Q04DX003 (ip), vehicle: saline with Tween-80 100 % of control | dose: 5.0 mg/kg/injection, schedule: Q04DX003 (ip), vehicle: saline with Tween-80 104 % of control | dose: 10.0 mg/kg/injection, schedule: Q04DX003 (ip), vehicle: saline with Tween-80 104 % of control

CCOC(=O)CNC(=O)Sc1ccc(C(C)(C)C)cc1
inactive: [2] 121 % of control | [10] 108 % of control

O=[N+]([O-])C(Cl)(Cl)C(Cl)(Cl)[N+](=O)[O-]
inactive: dose: 1.25 mg/kg/injection, schedule: Q01DX009 (ip), vehicle: other 100 % of control | [4] 100 % of control | dose: 2.5 mg/kg/injection, schedule: Q04DX003 (ip), vehicle: other 87 % of control | dose: 5.0 mg/kg/injection, schedule: Q01DX009 (ip), vehicle: other 95 % of control | [5] 104 % of control

CSc1nc(N)nc2c1ncn2C1CC(O)C(CO)O1 (stereo not drawn)
inactive: dose: 50.0 mg/kg/injection, schedule: Q01DX009 (ip), vehicle: saline 95 % of control | dose: 100.0 mg/kg/injection, schedule: Q01DX009 (ip), vehicle: saline 95 % of control and 101 % of control | dose: 200.0 mg/kg/injection, schedule: Q01DX009 (ip), vehicle: saline 100 % of control | dose: 400.0 mg/kg/injection, schedule: Q01DX009 (ip), vehicle: saline 97 % of control
